From patent publication US20240269170A1, “Treatment of Inflammatory Conditions or Diseases” (Queen Mary University of London, priority 2021, published 2024)

Tested on: arthritic femur heads
Assay: Organ culture of arthritic femur heads with monocyte-derived macrophages, Safranin-O staining
Format: cell-based, mouse
Conditions: monocytes incubated with 10 μM RG108 for 45 min before 1 nM MCTR3
Experimental: FIG. 6: Arg-1 mediates the anti-inflammatory and cartilage protective activities of MCTR3-trained monocytes. (A,B) Femur heads and bone marrow-derived monocytes were collected 5 days following the induction of arthritis in C57BL/6 mice. Femur heads were incubated in serum free DMEM high glucose containing 1% insulin-transferrin-selenium for 48 hours and then in DMEM containing 10% FBS and 10 ng/ml IL-1B for 4 days. Monocytes were incubated with vehicle (PBS+0.1% EtOH) or 1 nM MCTR3 for 24 hours, then differentiated to monocyte-derived macrophages. Two days after the initiation of differentiation, cells were transfected with control siRNA or siRNA against Arg-1. […] Tissues were then collected and glycosaminoglycan content was evaluated using Safranin-O staining. (A) Representative images and (B) quantitation of Safranin-O staining. […] Statistical differences were evaluated using Wilcoxon signed rank test when assessing for differences vs Vehicle group and using one-way ANOVA and Kruskal Wallis post hoc test when evaluating differences vs MCTR3 treated group.
FIG. 12: DNMT enzyme inhibition reverses the ability of MCTR3 to upregulate Arg-1 in MDM and the cartilage protective activities of MCTR3-trained monocytes. […] The proteoglycan concentrations in the femur heads were assessed using Safranin O staining. […] Statistical differences were evaluated using one-sample Wilcoxon signed rank test. […]

For `O=C(O)C(Cc1c[nH]c2ccccc12)N1C(=O)c2ccccc2C1=O` (stereo not shown) [RG108], the “cartilage protective activities of MCTR3-trained monocytes” value was “reverses”.
